Measurements published in patent US20020160932A1, “Uncompetitive inhibitors of helicase-primase” (priority 2000, published 2002).
Where two headings read alike, the source gives them in different places.

Assays:
HSV-2 G = test: in vitro viral replication assay, human HSV-2 G; assay type: cell-based, herpes simplex virus 2; details: for IC50: in vitro viral replication assay; for SI human HSV-2 G: selectivity index SI=(CC50/IC50);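 on SI human HSV-2 G: ratio of CC50 to antiviral IC50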
PRV = test: cells; assay type: cell-based, porcine (PRV); details: for IC50: read-out: IC50 porcine PRV
BHV = test: in vitro viral replication assay, bovine BHV; assay type: cell-based; details: for IC50: in vitro viral replication assay; for SI bovine BHV: selectivity index SI=(CC50/IC50);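 on SI bovine BHV: ratio of CC50 to antiviral IC50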
[1] = test system: clinical isolates (39 HSV-1 and 19 HSV-2 isolates); test: activity on clinical isolates; assay type: cell-based, herpes simplex virus; details: 39 HSV-1 and 19 HSV-2 isolates tested
HSV-2 MS = test: in vivo lethal challenge model, HSV-2 MS; details: for in vivo lethal challenge model HSV-2 MS ED50: p.o., mice, 3 times a day for 5 days, survival; for ED50: Human alphaherpesvirus 2, in Mus musculus, po, 120 h, read-out: in vivo lethal challenge model HSV-2 MS ED50, p.o., mice, 3 times a day for 5 days, survival
Procedure: (§1) 6-week old female mice, strain BALB/cABom, were purchased from a commercial breeder (Bomholtgard Breeding and Research Centre Ltd).
(§2) The animals were anaesthetized with diethyl ether (Merck) in a sealed glass vessel. 50 μl of a dilution of the virus stock (dose for infection 5×10^4 Pfu) were introduced with an Eppendorf pippette into the nose of the anaesthetized animals. This dose leads to death of 90-100% of the animals due to a generalized infection with prominent respiratory and central nervous symptoms after on average between 5 and 8 days.
(§3) 6 hours after the infection, the animals were treated with doses of 0.1-100 mg/kg of body weight 3 times day at 7.00 h, 14.00 h and 19 h over a period of 5 days. The substances were dissolved in DMSO and resuspended in Tylose/PBS (Hoechst) (final concentration 1.5% DMSO, 0.5% Tylose in PBS).
(§4) After the last administration, the animals were observed further and the times of death were recorded.

HSV-1 Walkie = test: in vivo lethal challenge model, HSV-1 Walki; details: for in vivo lethal challenge model HSV-1 Walkie ED50: p.o., mice, 3 times a day for 5 days, survival; for ED50: Human alphaherpesvirus 1, in Mus musculus, po, 120 h, read-out: in vivo lethal challenge model HSV-1 Walkie ED50
Procedure: as §1, §2, §3, §4

Wild-type HSV-1 (F) = test: in vitro viral replication assay, wild-type HSV-1 (F); assay type: cell-based, herpes simplex virus 1; details: for SI Wild-type HSV-1 (F): selectivity index SI=(CC50/IC50);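 on SI Wild-type HSV-1 (F): ratio of CC50 to antiviral IC50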
[2] = molecular target: HSV-1 helicase-primase heterodimer enzyme complex (UL5-UL52-6xHis) (Human herpesvirus 1, UniProt P10189+P10236); test: HSV-1 DNA-dependent ATPase assay
HSV-1 helicase-primase heterodimer enzyme complex (UL5-UL52-6xHis), sequence (P10236 whole entry): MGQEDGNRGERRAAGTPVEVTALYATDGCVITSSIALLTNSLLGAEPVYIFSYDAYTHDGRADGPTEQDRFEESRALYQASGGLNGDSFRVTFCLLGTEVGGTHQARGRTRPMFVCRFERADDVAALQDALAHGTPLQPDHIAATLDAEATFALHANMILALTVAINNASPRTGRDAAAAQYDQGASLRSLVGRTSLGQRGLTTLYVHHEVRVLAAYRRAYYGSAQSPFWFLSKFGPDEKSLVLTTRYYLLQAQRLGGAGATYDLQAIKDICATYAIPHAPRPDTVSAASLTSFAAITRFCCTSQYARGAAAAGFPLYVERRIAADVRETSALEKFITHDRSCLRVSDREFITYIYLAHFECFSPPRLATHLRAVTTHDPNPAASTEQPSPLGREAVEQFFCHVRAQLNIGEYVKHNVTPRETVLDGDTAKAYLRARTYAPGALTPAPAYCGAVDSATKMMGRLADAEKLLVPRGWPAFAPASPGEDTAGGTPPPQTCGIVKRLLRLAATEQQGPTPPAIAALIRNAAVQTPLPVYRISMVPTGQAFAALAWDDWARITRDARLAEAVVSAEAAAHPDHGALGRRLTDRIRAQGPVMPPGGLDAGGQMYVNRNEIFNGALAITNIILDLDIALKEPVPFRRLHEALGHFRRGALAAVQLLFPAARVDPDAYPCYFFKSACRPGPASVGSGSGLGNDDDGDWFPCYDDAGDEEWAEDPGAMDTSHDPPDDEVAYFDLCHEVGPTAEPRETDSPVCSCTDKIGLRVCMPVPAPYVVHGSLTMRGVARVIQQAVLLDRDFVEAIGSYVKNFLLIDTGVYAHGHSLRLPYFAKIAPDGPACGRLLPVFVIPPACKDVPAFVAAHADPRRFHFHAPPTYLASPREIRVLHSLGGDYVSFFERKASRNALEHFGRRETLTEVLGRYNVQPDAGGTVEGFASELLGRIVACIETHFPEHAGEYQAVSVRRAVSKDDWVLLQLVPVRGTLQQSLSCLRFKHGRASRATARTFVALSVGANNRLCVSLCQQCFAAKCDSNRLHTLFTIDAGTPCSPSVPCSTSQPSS
HSV-1 helicase-primase heterodimer enzyme complex (UL5-UL52-6xHis), sequence (P10189 whole entry): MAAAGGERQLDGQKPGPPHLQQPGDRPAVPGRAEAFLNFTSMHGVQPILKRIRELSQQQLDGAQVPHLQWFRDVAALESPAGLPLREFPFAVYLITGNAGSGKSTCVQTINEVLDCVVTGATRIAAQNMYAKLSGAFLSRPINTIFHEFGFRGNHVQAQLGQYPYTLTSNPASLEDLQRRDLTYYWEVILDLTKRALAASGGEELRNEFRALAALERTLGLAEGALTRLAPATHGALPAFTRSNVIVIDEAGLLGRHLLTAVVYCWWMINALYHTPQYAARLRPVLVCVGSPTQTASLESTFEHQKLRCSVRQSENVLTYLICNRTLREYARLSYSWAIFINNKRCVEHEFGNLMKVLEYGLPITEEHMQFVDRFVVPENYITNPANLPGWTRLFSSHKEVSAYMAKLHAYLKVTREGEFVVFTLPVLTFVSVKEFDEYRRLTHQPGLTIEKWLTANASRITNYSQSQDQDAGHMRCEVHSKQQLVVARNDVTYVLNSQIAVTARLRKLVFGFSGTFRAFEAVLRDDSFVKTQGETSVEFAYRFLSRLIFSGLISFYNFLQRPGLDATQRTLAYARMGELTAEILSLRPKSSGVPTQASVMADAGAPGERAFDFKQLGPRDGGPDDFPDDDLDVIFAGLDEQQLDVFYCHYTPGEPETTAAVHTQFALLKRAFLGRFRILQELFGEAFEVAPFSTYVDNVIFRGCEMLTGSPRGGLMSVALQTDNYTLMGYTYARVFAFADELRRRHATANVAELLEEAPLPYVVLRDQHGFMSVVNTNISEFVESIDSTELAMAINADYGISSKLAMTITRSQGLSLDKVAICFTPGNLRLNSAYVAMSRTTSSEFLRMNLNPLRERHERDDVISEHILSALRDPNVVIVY
Source text: HSV-1 DNA-dependent ATPase assay (this in vitro assay permits testing for inhibition of the HSV-1 helicase-primase).
The HSV-1 helicase-primase heterodimer enzyme complex was [lacuna] with the aid of the recombinant baculovirus expression system in doubly infected Sf9 (Spodoptera frugiperda) cells. One recombinant baculovirus codes for the UL5 helicase gene and the second virus codes for the manipulated UL52-6×His primase gene.
The genes were amplified from the HSV-1 (F) genome by PCR (American Tissue Culture Collection ATCC VR-733) and cloned into the baculovirus (UL5→pFASTBAC1; UL52→pFASTHTb) as described in detail in the instruction manual for BAC-TO-BAC Baculovirus Expression Systems, Life-Technologies.
The purified heterodimeric helicase-primase complex (200 ng) was incubated with 1 μg of DNA (Sigma D3287 or D8681) in 20 mM HEPES (pH 7.6; 4-(2-hydroxyethyl)-1-piperazineethanesulphonic acid), 5 mM MgCl2, 0.2-5 mM ATP, 100 μg of BSA (bovine serum albumin) per ml, 10% glycerol, 1 mM DTT (DL-dithiothreitol) and, where appropriate, inhibitor in the appropriate concentration at 37° C. for 60 min.
The inhibition of the DNA-dependent ATPase activity was calculated from the change in the absorption in the presence and absence of inhibitor.
The Ki values were calculated with the assistance of the Sigma Plot software 4.0 and the method of nonlinear curve regression.
For this purpose, the ATPase activity of the helicase-primase heterodimer (detection through formation of inorganic phosphate (Pi)) was measured in the presence of saturated DNA concentrations and varying ATP and inhibitor concentrations, as explained in the ATPase assay section.

[3] = test system: Active substance-resistant HSV-1 (F) mutants; details: read-out: IC50 Active substance-resistant HSV-1 (F) mutants; mutant not named
[4] = in vitro viral replication assay, read-out: IC50 Wild-type HSV-1 (F)

Compound	IC50 (HSV-2 G)	SI human HSV-2 G (HSV-2 G)	SI porcine PRV (PRV)	IC50 (PRV)	IC50 (BHV)	SI bovine BHV (BHV)	activity on clinical isolates [1]	in vivo lethal challenge model HSV-2 MS ED50 (HSV-2 MS)	in vivo lethal challenge model HSV-1 Walkie ED50 (HSV-1 Walkie)	ED50 (HSV-2 MS)	ED50 (HSV-1 Walkie)	IC50 (Wild-type HSV-1 (F); Human alphaherpesvirus 1, read-out: IC50 Wild-type HSV-1 (F))	SI Wild-type HSV-1 (F) (Wild-type HSV-1 (F))	IC50 (HSV-2 G; Human alphaherpesvirus 2)	IC50 (PRV; Sus scrofa)	IC50 (BHV; Bos taurus)	Ki [2]	type of ATPase inhibition (mechanism) ([2]; wild-type HSV-1 (F) helicase-primase)	IC50 (Wild-type HSV-1 (F); [4])	IC50 [3]
Cc1nc(N(C)C(=O)Cc2ccc(-c3ccccc3)cc2)sc1S(N)(=O)=O [Example 5]	5 nM	50000	13	8000 nM	50 nM	5000	active on all the clinical isolates tested to date	1.1 mg/kg	0.5 mg/kg	–	–	–	–	–	–	–	–	–	–	–
CC(C)[C@H](N)C(=O)OCCOCn1cnc2c(=O)[nH]c(N)nc21 [Valtrex, reference compound]	–	–	–	–	–	–	–	–	–	14 mg/kg	17 mg/kg	–	–	–	–	–	–	–	–	–
Cc1nc(N(C)C(=O)Cc2ccc(-c3ccccn3)cc2)sc1S(N)(=O)=O [Example 7]	–	3000	>50	–	–	240	active on all the clinical isolates tested to date	–	–	~0.5 mg/kg	0.5 mg/kg	20 nM	2500	20 nM	5000 nM	125 nM	30 nM	uncom-	–	–
CNS(=O)(=O)c1sc(N(C)C(=O)Nc2ccc(-c3ccccc3)cc2)nc1C [Example 3]	5 nM	25000	–	–	–	–	–	11 mg/kg	8 mg/kg	–	–	–	3E+05	–	–	–	–	–	1 nM	> 250000 nM
CNS(=O)(=O)c1sc(N(C)C(=O)Nc2ccc(N3CCOCC3)cc2)nc1C [Example 2]	1500 nM	200	–	–	–	–	–	weak	26 mg/kg	–	–	–	400	–	–	–	–	–	500 nM	–
